Tests used:
Assay type in all cases: physicochemical
[1] = Accelerated deterioration (xenon weather meter X25, 120 hours) of photochromic cured product prepared by kneading method; settings: 1 mm cured product, 0.106 mmol per 100 g monomer, A120/A0×100 after 120 hours xenon weather meter
Procedure: (§1) • [1] Maximum Absorption Wavelength (λmax): The maximum absorption wavelength after color development, measured using a spectrophotometer (instantaneous multichannel photodetector MCPD3000) manufactured by Otsuka Electronics Co., Ltd. was used as an indicator for the color tone during the color development. • [2] 23°C Color Optical Density (A23): A difference between an absorbancy measured after light irradiation at 23°C for 300 seconds {ε(300)} and an absorbancy without light irradiation ε(0) at the maximum absorption wavelength was used as an indicator for the color optical density. […] 23°C color fading half-life [τ1/2 (sec.)]: A time required for the absorbancy of the sample at the maximum absorption wavelength to decrease to 1/2 of {ε(300)-ε(0)} when the light irradiation was terminated after the light irradiation at 23°C for 300 seconds, was used as an indicator for the color fading speed. The shorter this time, the higher the color fading speed. • [4] Residual rate (A120/A0×100): The obtained photochromic plastic lens was subjected to accelerated deterioration using a xenon weather meter X25 manufactured by Suga Test Instruments Co., Ltd. for 120 hours. Subsequently, the color optical density was evaluated before and after the test, then a color optical density before the test (A0) and a color optical density after the test (A120) were measured, and a ratio (A120/A0) was defined as a residual rate. The residual rate was used as an indicator for a color developing durability. The higher the residual rate, the higher the color developing durability. The results of Examples 26, 50, and Comparative Examples 1 to 8 are summarized in Table 1, and the results of Examples 27 to 49 are summarized in Tables 2 and 3.
(§2) First, the photochromic compound obtained in Example 1, additives, and a polymerizable compound were mixed to obtain a curable composition.
(§3) As the polymerizable compound, a combination of the following polymerizable monomers was used. • 1,3-bis(isocyanatomethyl)cyclohexane: 36.7 parts by mass Pentaerythritol tetrakis(3-mercaptopropionate): 39.4 parts by mass • Polyoxyethylene polyoxypropylene lauryl ether (Wonder Surf 140 manufactured by Aoki Oil Industrial Co., Ltd.): 17.4 parts by mass • 1-decanethiol: 2.8 parts by mass • RX-1 adjusted according to the method described in Patent Document 13: 3.8 parts by mass
(§4) Note that the photochromic compound was added to the curable composition so that the amount of the photochromic compound was 0.106 mmol based on 100 g of the total amount of the polymerizable monomer. The following additives were used: Dimethyltin dichloride • : 0.05 part by mass • Irganox 245: 0.1 part by mass • 2-ethylhexyl 4-methoxycinnamate: 0.6 part by mass
(§5) The prepared curable composition was thoroughly defoamed, then injected into a glass mold having a 1 mm gap, and polymerized by cast polymerization. The polymerization was carried out in an air furnace while gradually raising the temperature from 27°C to 120°C over 18 hours. After the polymerization, the cured product was removed from the glass mold to obtain a photochromic cured product having a thickness of 1 mm. The obtained photochromic cured product was evaluated in the same manner as in Example 26.
(§6) (Examples 85 to 99, and Comparative Example 14 to 18) Photochromic cured products were prepared using photochromic compounds presented in Tables 6 and 7 in the same manner as in Example 84. The results of Examples 84 and 85 and Comparative Examples 14 to 18 are summarized in Table 6, and the results of Examples 86 to 99 are summarized in Table 7.

[2] = Photochromic properties of photochromic cured product prepared by kneading method; settings: 0.106 mmol per 100 g monomer; for A23: 1 mm cured product, 23°C color optical density ε(300)-ε(0); for Maximum absorption wavelength: 1 mm thiourethane cured product, after color development
Procedure: as §1, §2, §3, §4, §5, §6

[3] = Accelerated deterioration (xenon weather meter X25, 120 hours) of binder sheet prepared by binder method; settings: 0.25 mmol per 100 parts by mass resin, A120/A0×100 after 120 hours xenon weather meter
Procedure: as §1
(§7) A binder sheet was prepared using the following method. The binder sheet consisted of a first optical sheet, a first adhesive layer, a photochromic layer, a second adhesive layer, and a second optical sheet, which are laminated in this order. The first optical sheet and the second optical sheet were made of a polycarbonate sheet with a thickness of 400 µm.
(§8) A 2L four-necked flask equipped with agitation blades, a cooling tube, a thermometer, and a nitrogen gas introducing tube was charged with 315 parts by mass of polycarbonate diol having a number-average molecular weight of 1000, 100 parts by mass of isophorone diisocyanate, and 72 parts by mass of toluene, and the mixture was reacted under nitrogen atmosphere at 100°C for 7 hours to synthesize a urethane prepolymer having an isocyanate group on its terminal. After completion of the urethane prepolymer reaction, the reaction liquid was cooled to approximately 0°C, then dissolved in 205 parts by mass of t-butyl alcohol and 382 parts by mass of diethyl ketone, and then the liquid temperature was maintained at 0°C. Subsequently, into this reaction liquid, a mixture of 21.3 parts by mass of bis-(4-aminocyclohexyl)methane as a chain extender and 20 parts by mass of diethyl ketone was dripped over within 30 minutes, and the mixture was reacted at 0°C for 1 hour. Then, into the mixture, 8.1 parts by mass of 1,2,2,6,6-pentamethyl-4-aminopiperidine was dripped, and the mixture was reacted at 0°C for 1 hour to obtain a diethyl ketone solution of a terminal non-reactive urethaneurea resin.
(§9) To 100 parts by mass of the obtained terminal non-reactive urethaneurea resin solution, the photochromic compound in Example 1 (represented by formula (28) above), 6.3 parts by mass of 4,4'-methylenebis(cyclohexyl isocyanate) isomer mixture (polyisocyanate compound), furthermore 0.4 part by mass of ethylene bis(oxyethylene)bis[3-(5-tert-butyl-4-hydroxy-m-tolyl)propionate] as an antioxidant, and 0.06 part by mass of DOW CORNING TORAY L-7001 as a surfactant were added, and the mixture was stirred and mixed at room temperature to obtain a photochromic layer forming composition. […]

[4] = Photochromic properties of binder sheet (photochromic layer prepared by binder method); settings: 0.25 mmol per 100 parts by mass resin; for A23: 23°C color optical density ε(300)-ε(0); for Maximum absorption wavelength: urethaneurea resin binder sheet, after color development
Procedure: as §1, §7, §8, §9

CCCCN(c1ccccc1)c1ccc(C2(c3ccc(C)cc3)C=Cc3c4c(c5cc(N6CCOCC6)c(OC)cc5c3O2)-c2ccccc2C4(CC)CC)cc1 (stereo not shown) [Example 10]
Residual rate [1]: 68% | Residual rate ([1]; listed as Formula (62)): 70% | A23 [2]: 1.41 - | A23 ([2]; listed as Formula (62)): 1.09 - | Maximum absorption wavelength [2]: 519 nm | Maximum absorption wavelength ([2]; listed as Formula (62)): 600 nm | Residual rate [3]: 91% | A23 [4]: 1.35 - | A23 ([4]; listed as Formula (62)): 1.12 - | Maximum absorption wavelength [4]: 516 nm | Maximum absorption wavelength ([4]; listed as Formula (62)): 594 nm

COc1ccc(C2(c3ccc(N(C)c4ccccc4)cc3)C=Cc3c4c(c5cc(-c6ccc(N7CCOCC7)cc6)c(OC)cc5c3O2)-c2ccccc2C4(C)C)cc1 (stereo not shown) [Example 1]
Residual rate [1]: 72% | A23 [2]: 0.96 - | A23 ([2]; listed as Formula (37)): 1.06 - | Maximum absorption wavelength [2]: 503 nm | Maximum absorption wavelength ([2]; listed as Formula (37)): 610 nm | Residual rate [3]: 89% | Residual rate ([3]; listed as Formula (37)): 90% | A23 [4]: 0.97 - | A23 ([4]; listed as Formula (37)): 1.06 - | Maximum absorption wavelength [4]: 502 nm | Maximum absorption wavelength ([4]; listed as Formula (37)): 603 nm

COCCCCC1(CCCCOC)c2cc(Sc3c(C)cccc3C)ccc2-c2c1c1c(c3cc(OC)ccc23)OC(c2ccc(OC)cc2)(c2ccc(N(C)c3ccc(OC)cc3)cc2)C=C1 (stereo not shown) [Example 11]
Residual rate [3]: 90% | Residual rate ([3]; listed as Formula (65)): 89% | A23 [4]: 0.51 - | A23 ([4]; listed as Formula (65)): 0.97 - | Maximum absorption wavelength [4]: 479 nm | Maximum absorption wavelength ([4]; listed as Formula (65)): 612 nm

CCCC1(CCC)c2ccccc2-c2c1c1c(c3cc(OC)c(-c4ccc(OC)cc4OC)cc23)OC(c2ccc(C)cc2)(c2ccc(N(C)c3ccccc3)cc2)C=C1 (stereo not shown) [Example 19]
Residual rate [1]: 73% | A23 [2]: 0.87 - | A23 ([2]; listed as Formula (80)): 1.15 - | Maximum absorption wavelength [2]: 496 nm | Maximum absorption wavelength ([2]; listed as Formula (80)): 610 nm | Residual rate [3]: 91% | A23 [4]: 0.88 - | A23 ([4]; listed as Formula (80)): 1.14 - | Maximum absorption wavelength [4]: 492 nm | Maximum absorption wavelength ([4]; listed as Formula (80)): 604 nm

COCCC1(CCOC)c2ccccc2-c2c1c1c(c3cc(OC)c(-c4ccc(N(c5ccccc5)c5ccccc5)cc4)cc23)OC(c2ccc(Oc3ccccc3)cc2)(c2ccc(N(C)c3ccccc3)cc2)C=C1 (stereo not shown) [Example 23]
Residual rate [3]: 89% | A23 [4]: 1.02 - | A23 ([4]; listed as Formula (85)): 1.06 - | Maximum absorption wavelength [4]: 506 nm | Maximum absorption wavelength ([4]; listed as Formula (85)): 609 nm

CCCC1(CCC)c2cc(OC(F)(F)F)ccc2-c2c1c1c(c3cc(OC)c(Sc4c(C)cccc4C)cc23)OC(c2ccc(N(C)c3ccccc3)cc2)(c2ccc(OC)c(OC)c2)C=C1 (stereo not shown) [Example 57]
Residual rate [1]: 72% | A23 [2]: 0.86 - | A23 ([2]; listed as Formula (110)): 0.88 - | Maximum absorption wavelength [2]: 496 nm | Maximum absorption wavelength ([2]; listed as Formula (110)): 625 nm | Residual rate [3]: 91% | Residual rate ([3]; listed as Formula (110)): 90% | A23 [4]: 0.85 - | A23 ([4]; listed as Formula (110)): 0.87 - | Maximum absorption wavelength [4]: 493 nm | Maximum absorption wavelength ([4]; listed as Formula (110)): 618 nm

CCCCOCCC1(CCOCCCC)c2ccccc2-c2c1c1c(c3cc(OC)c(NC(=O)c4ccccc4)cc23)OC(c2ccc(N(C)c3ccccc3)cc2)(c2ccc(OC)c(F)c2)C=C1 (stereo not shown) [Example 53]
Residual rate [3]: 87% | Residual rate ([3]; listed as Formula (95)): 89% | A23 [4]: 0.75 - | A23 ([4]; listed as Formula (95)): 0.96 - | Maximum absorption wavelength [4]: 502 nm | Maximum absorption wavelength ([4]; listed as Formula (95)): 607 nm

CCN(c1ccc(OC)cc1)c1ccc(C2(c3ccc(OC)cc3)C=Cc3c4c(c5cc(-c6ccc(N7CCOCC7)cc6)c(OC)cc5c3O2)-c2ccccc2C4(C)C)cc1 (stereo not shown) [Example 25]
Residual rate [1]: 68% | A23 [2]: 0.88 - | A23 ([2]; listed as Formula (88)): 0.96 - | Maximum absorption wavelength [2]: 505 nm | Maximum absorption wavelength ([2]; listed as Formula (88)): 613 nm | Residual rate [3]: 87% | A23 [4]: 0.88 - | A23 ([4]; listed as Formula (88)): 0.97 - | Maximum absorption wavelength [4]: 505 nm | Maximum absorption wavelength ([4]; listed as Formula (88)): 606 nm

Reference: patent EP4692072A1, “PHOTOCHROMIC COMPOUND, PROPARGYL ALCOHOL COMPOUND, CURABLE COMPOSITION, OPTICAL ARTICLE, LENS, AND SPECTACLES” (TOKUYAMA CORPORATION, priority 2023, dated 2024)
